Experimental data taken from patent US20240174637A1, “DEGRADERS OF GRK2 AND USES THEREOF” (Sonata Therapeutics, Inc., priority 2021, published 2024).
Read-outs that look alike come from different tables or passages of the source.

How the values were obtained:
Type in all cases: cell-based
PAXF1657 KO Clone #4 = assay: 7-day cellular proliferation assay (CellTiter-Glo), PAXF1657 KO Clone #4; settings: proliferation, read-out: GeoMean IC50 (uM) PAXF1657 KO Clone #4
Description: (§1) In order to identify compounds specific for GRK2, we generated two isogenic cell line pairs of the pancreatic cancer cell line PAXF1657, a pair of cells stably overexpressing GRK2 cDNA or the control empty vector and a cell line pair of PAXF1657 GRK2 knockout clonal cells versus non-targeting control clonal cells.
(§2) Proliferation Assay: Cellular anti-proliferative activity of compounds was assessed by using the pancreatic cancer cell line, PAXF1657, stably overexpressing GRK2 cDNA or the control empty vector, as well as the parental urinary bladder cancer cell line, 5637. In addition, we also took advantage of GRK2 knockout cell lines that were generated via CRISPR. Cell lines were seeded into tissue culture treated, white-walled, 96-well plates at a density of 500 cells/well in RPMI1640 media supplemented with 10% H.I. FBS and penicillin/streptomycin. Plates were incubated overnight at 37° C., 5% CO2 to allow cells to adhere to the wells. GRK2 inhibitors were added to the cells using a 10-point dilution series with a final concentration ranging from 30 μM-0.0002 μM in 0.3% DMSO. At the time of compound addition, a set of plates, that were not treated with compounds, were collected and cell viability was measured using CellTiter-Glo (Promega). CellTiter-Glo reagent was added to the designed plates and luminescence was measuring using a Biotek Synergy plate reader. The compound treated cells were incubated for 3 days at 37° C., 5% CO2. The media was then aspirated from each well and replaced with fresh media containing GRK2 inhibitors. The compound treated cells were then incubated for an additional 4 days at 37° C., 5% CO2. Cell viability was assessed and at end of the 7-day compound treatment by CellTiterGlo.

PAXF1657 EV = assay: 7-day cellular proliferation assay (CellTiter-Glo), PAXF1657 EV; settings: proliferation, read-out: GeoMean IC50 (UM) PAXF1657 EV
Description: as §1, §2

GRK2 = target: T1, GRK2 (Homo sapiens, UniProt P25098); assay: GRK2 Degradation Assay and Western Blot in PAXF1657 cells; set-up: endogenous in cells; host or cells: PAXF1657; settings: for inhibition at 0.3 µM / inhibition at 1 µM / inhibition at 3 µM: read-out: Degradation Assay - 3 point: Degradation (%)
T1 sequence (P25098 1-689): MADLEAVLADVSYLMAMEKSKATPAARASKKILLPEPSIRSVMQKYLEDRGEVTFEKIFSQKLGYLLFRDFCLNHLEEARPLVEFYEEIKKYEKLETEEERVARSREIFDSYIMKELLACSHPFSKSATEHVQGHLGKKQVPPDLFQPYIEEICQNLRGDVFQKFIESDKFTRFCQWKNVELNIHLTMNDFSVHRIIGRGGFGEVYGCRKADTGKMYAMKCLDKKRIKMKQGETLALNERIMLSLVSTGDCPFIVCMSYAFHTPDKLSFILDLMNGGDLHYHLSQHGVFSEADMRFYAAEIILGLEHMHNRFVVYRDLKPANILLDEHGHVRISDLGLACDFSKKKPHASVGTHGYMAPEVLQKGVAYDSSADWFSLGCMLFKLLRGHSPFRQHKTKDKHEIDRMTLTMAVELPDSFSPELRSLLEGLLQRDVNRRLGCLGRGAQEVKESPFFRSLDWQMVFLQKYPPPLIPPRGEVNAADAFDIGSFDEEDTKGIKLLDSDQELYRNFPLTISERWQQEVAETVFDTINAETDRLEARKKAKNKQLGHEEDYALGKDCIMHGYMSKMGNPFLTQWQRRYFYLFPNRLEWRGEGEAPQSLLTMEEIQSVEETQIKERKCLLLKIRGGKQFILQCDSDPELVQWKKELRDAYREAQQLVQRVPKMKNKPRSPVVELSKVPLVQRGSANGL
Description: General Protocol: Degradation Assay and Western Blot. PAXF1657 cells were plated in 6-well, 24-well plates or 60 mm tissue culture treated dishes and incubated at 37° C. until 70% confluency. The media was aspirated, and the cells were treated with fresh media containing the compounds in the concentration range of 0 μM to 10 μM for a period of 6 to 24 hours. At the desired time points the cells were washed twice with cold PBS and lysed with lysis buffer (ice cold PBS+1% NP40 with 1/100 protease/phosphatase inhibitors) on ice for 8 mins followed by sonication at 70% intensity pulses for 10 seconds. The cells were centrifuged at 20000 g for 8 min at 4° C. The supernatants were collected and stored at −80° C.
Samples were mixed with NuPAGE LDS sample buffer and NuPAGE sample reducing buffer (3×), vortexed and heated at 95° C. for 10 min, and then analyzed by SDS-PAGE (NuPAGE 4-12%) followed by transfer to nitrocellulose membrane. […] The membranes were washed three times with TBST and incubated with GRK2 or R-actin antibodies in 5% milk in TBST at 4° C. overnight. The membranes were washed three times with TBST and incubated with anti-mouse IgG-HRP or anti-rabbit IgG-HRP at room temperature for 2 hours in 5% milk in TBST. The membranes were washed three times with TBST and developed with ECL Dura, ECL femto or ECL atto substrates.

Compound	inhibition at 0.3 µM (GRK2; Conc 0.3 uM)	inhibition at 1 µM (GRK2; Conc 1 uM)	inhibition at 3 µM (GRK2; Conc 3 uM)	DC50 (GRK2; PAXF1657, 24 h, read-out: Degradation Assay - Full Dose Response: IC50 (uM) [cell line: PAXF1657, time point: 24 h])	IC50 (PAXF1657 KO Clone #4)	IC50 (PAXF1657 EV)	inhibition at 0.3 µM (GRK2)	inhibition at 1 µM (GRK2)	inhibition at 3 µM (GRK2)
Cc1ncsc1-c1ccc(CNC(=O)[C@@H]2C[C@@H](O)CN2C(=O)[C@@H](NC(=O)COCCCOCCCCCOc2ccc3c(c2)[C@H](NC(=O)c2cccc(NCc4nnc(-c5ccncn5)n4C)c2)CCO3)C(C)(C)C)cc1 [Compound D161]	15%	23%	30%		7.51 µM	1.56 µM			
C[C@@H](NC(=O)c1cccc(NCc2nnc(-c3ccncn3)n2C)c1)c1cccc(OCCCCCn2cc(CCCCC(=O)Nc3cccc4c3CN(C3CCC(=O)NC3=O)C4=O)nn2)c1 (stereo partly drawn) [Compound D164]	17.1%	14.1%	42.6%		> 30 µM	5.09 µM			
C[C@@H](NC(=O)c1cccc(NCc2nnc(-c3ccncn3)n2C)c1)c1cccc(OCCCCCCn2cc(CCCC(=O)Nc3cccc4c3CN(C3CCC(=O)NC3=O)C4=O)nn2)c1 (stereo partly drawn) [Compound D165]	-1.61%	35.5%	70.1%		> 30 µM	2.6 µM			
C[C@@H](NC(=O)c1cccc(NCc2nnc(-c3ccncn3)n2C)c1)c1cccc(OCCCCCCn2cc(CCCCC(=O)Nc3cccc4c3CN(C3CCC(=O)NC3=O)C4=O)nn2)c1 (stereo partly drawn) [Compound D166]	12.1%	32.4%	68.1%		> 30 µM	1.91 µM			
Cc1ncsc1-c1ccc(CNC(=O)[C@@H]2C[C@@H](O)CN2C(=O)[C@@H](NC(=O)COCCCOCCCCCOc2ccc(CNC(=O)c3cccc(NCc4nnc(-c5ccncn5)n4C)c3)cc2)C(C)(C)C)cc1 [Compound D168]	0.276%	-12%	-22%		6.03 µM	> 1.88 µM			
Cn1c(CNc2cccc(C(=O)N[C@@H]3CCOc4ccc(OCCCCCCOCCOCCOCCCCCC(=O)N5CCN(c6ccc7c(c6)CN(C6CCC(=O)NC6=O)C7=O)CC5)cc43)c2)nnc1-c1ccncn1 (stereo partly drawn) [Compound D188, N-((4R)-6-(6-(2-(2-(6-(4-(2-(2,6-dioxopiperidin-3-yl)-1-oxoisoindolin-5-yl)piperazin-1-yl)-6-oxohexyloxy)ethoxy)ethoxy)hexyloxy)chroman-4-yl)-3-((4-methyl-5-(pyrimidin-4-yl)-4H-1,2,4-triazol-3-yl)methylamino)benzamide]					> 30 µM	1.26 µM	56.9%	67.7%	78.2%

More lines, main results first:

inhibition at 0.3 µM (GRK2; Conc 0.3 uM)	inhibition at 1 µM (GRK2; Conc 1 uM)	inhibition at 3 µM (GRK2; Conc 3 uM)	DC50 (GRK2; PAXF1657, 24 h, read-out: Degradation Assay - Full Dose Response: IC50 (uM) [cell line: PAXF1657, time point: 24 h])	Compound	IC50 (PAXF1657 KO Clone #4)	IC50 (PAXF1657 EV)	inhibition at 0.3 µM (GRK2)	inhibition at 1 µM (GRK2)	inhibition at 3 µM (GRK2)
13.5%	11.1%	42.3%		C[C@@H](NC(=O)c1cccc(NCc2nnc(-c3ccncn3)n2C)c1)c1cccc(OCCCCCn2cc(CCCC(=O)Nc3cccc4c3CN(C3CCC(=O)NC3=O)C4=O)nn2)c1 (stereo partly drawn) [Compound D157]	> 30 µM	7.39 µM			
42.9%	65.8%	81.9%		C[C@@H](NC(=O)c1cccc(NCc2nnc(-c3ccncn3)n2C)c1)c1cccc(OCCCCCCCn2cc(CCCC(=O)Nc3cccc4c3CN(C3CCC(=O)NC3=O)C4=O)nn2)c1 (stereo partly drawn) [Compound D158, N-((1R)-1-(3-(7-(4-(4-(2-(2,6-dioxopiperidin-3-yl)-1-oxoisoindolin-4-ylamino)-4-oxobutyl)-1H-1,2,3-triazol-1-yl)heptyloxy)phenyl)ethyl)-3-((4-methyl-5-(pyrimidin-4-yl)-4H-1,2,4-triazol-3-yl)methylamino)benzamide]	> 30 µM	1.71 µM			
10%	46.3%	64.5%		C[C@@H](NC(=O)c1cccc(NCc2nnc(-c3ccncn3)n2C)c1)c1cccc(OCCCCCCn2cc(CCC(=O)Nc3cccc4c3CN(C3CCC(=O)NC3=O)C4=O)nn2)c1 (stereo partly drawn) [Compound D159]	> 30 µM	18.2 µM			
33.3%	57.4%	55.2%		Cn1c(CNc2cccc(C(=O)NCc3ccc(OCCCCCOCCCOCC(=O)Nc4cccc5c4CN(C4CCC(=O)NC4=O)C5=O)cc3)c2)nnc1-c1ccncn1 (stereo not drawn) [Compound D167, N-(4-(5-(3-(2-(2-(2,6-dioxopiperidin-3-yl)-1-oxoisoindolin-4-ylamino)-2-oxoethoxy)propoxy)pentyloxy)benzyl)-3-((4-methyl-5-(pyrimidin-4-yl)-4H-1,2,4-triazol-3-yl)methylamino)benzamide]	> 30 µM	2.44 µM			
29.1%	29.5%	21.3%	0.38 µM	Cc1ncsc1-c1ccc(CNC(=O)[C@@H]2C[C@@H](O)CN2C(=O)[C@@H](NC(=O)COCCCOCCCCCOc2cccc([C@@H](C)NC(=O)c3cccc(NCc4nnc(-c5ccncn5)n4C)c3)c2)C(C)(C)C)cc1 [Compound D182, (2S,4R)-1-((S)-3,3-dimethyl-2-(2-(3-((5-(3-((R)-1-(3-(((4-methyl-5-(pyrimidin-4-yl)-4H-1,2,4-triazol-3-yl)methyl)amino)benzamido)ethyl)phenoxy)pentyl)oxy)propoxy)acetamido)butanoyl)-4-hydroxy-N-(4-(4-methylthiazol-5-yl)benzyl)pyrrolidine-2-carboxamide]	10 µM	0.12 µM			
20%	36.3%	-32.6%		Cc1ncsc1-c1ccc(CNC(=O)[C@@H]2C[C@@H](O)CN2C(=O)C(NC(=O)CCCCCOCCOCCOCCCCCCOc2ccc3c(c2)[C@H](NC(=O)c2cccc(NCc4nnc(-c5ccncn5)n4C)c2)CCO3)C(C)(C)C)cc1 (stereo partly drawn) [Compound D186, (2S,4R)-1-((R)-2-tert-butyl-22-((R)-4-(3-((4-methyl-5-(pyrimidin-4-yl)-4H-1,2,4-triazol-3-yl)methylamino)benzamido)chroman-6-yloxy)-4-oxo-10,13,16-trioxa-3-azadocosane)-4-hydroxy-N-(4-(4-methylthiazol-5-yl)benzyl)pyrrolidine-2-carboxamide]	5.09 µM	0.56 µM			
11.8%	23.8%	63.1%		Cn1c(CNc2cccc(C(=O)N[C@@H]3CCOc4ccc(OCCCCCCOCCOCCOCCCCCC(=O)Nc5cccc6c5CN(C5CCC(=O)NC5=O)C6=O)cc43)c2)nnc1-c1ccncn1 (stereo partly drawn) [Compound D187, N-((4R)-6-(6-(2-(2-(6-(2-(2,6-dioxopiperidin-3-yl)-1-oxoisoindolin-4-ylamino)-6-oxohexyloxy)ethoxy)ethoxy)hexyloxy)chroman-4-yl)-3-((4-methyl-5-(pyrimidin-4-yl)-4H-1,2,4-triazol-3-yl)methylamino)benzamide]	> 30 µM	2.09 µM			
